Laboratory results taken from patent US10718006B2, “Methods for detecting beta-lactamase-producing bacteria” (priority 2015, dated 2020).

What was measured:
Experiment in all cases: β-Lacta Test (colorimetric, HMRZ-86), isolated colonies
Format in all cases: cell-based
Parameters in all cases: key: Yellow or orange colour: negative result (absence of C3G-resistant strains); Orange: Yellow or orange colour: negative result (absence of C3G-resistant strains); Red colour: positive result (presence of C3G-resistant strains)
E. aerogenes strains = test system: E. aerogenes strains
Experimental: (§1) The electrochemical method of the invention was applied to analysis of a panel of 40 strains producing various β-lactamases and was compared with the R-Lacta™ Test (Biorad), the principle of which is based on qualitative colorimetric detection of the C3G-resistant strains. The results presented in Table 7 were obtained after 30 min of incubation of the bacteria with the substrate HMRZ-86 for both methods. Based on the interpretation of the results proposed by the supplier, the R-Lacta™ Test allows identification of the C3G-resistant strains with a level of agreement of 68%, whereas a level of agreement of 95% was obtained with the electrochemical method of the invention. In contrast to colorimetry, amperometry offers the advantage of measuring a numerical value of current which, on the one hand, avoids any subjective interpretation of the result (intermediate colour), and on the other hand allows traceability of the result.
(§2) Table 7: Comparison of the results obtained with the electrochemical method of the invention for liquid cultures with those obtained with the R-Lacta™ Test implemented according to the supplier's recommendations with isolated colonies. In both cases, the readings were taken after incubation with the substrate HMRZ-86 for 30 min.

C. freundii strain = conditions: C. freundii 11745, Inducible cephalosporinase, 30 min with HMRZ-86
Experimental: as §1, §2

[1] = test system: E. coli strains producing various β-lactamases
Experimental: as §1, §2

K. pneumoniae strains = test system: K. pneumoniae strains
Experimental: as §1, §2

P. aeruginosa strains = conditions: 30 min with HMRZ-86
Experimental: as §1, §2

CC(C)(ON=C(C(=O)N[C@@H]1C(=O)N2C(C(=O)O)=C(C=Cc3ccc([N+](=O)[O-])cc3[N+](=O)[O-])CS[C@H]12)c1csc(N)n1)C(=O)O.O=C(O)C(F)(F)F [HMRZ-86, (6R,7R)-trifluoroacetate 7-[[2-(2-amino-4-thiazolyl)-2-[(1-carboxy-1-methylethoxy)imino]acetyl]amino]-1-aza-3-[2-(2,4-dinitrophenyl)ethenyl]-8-oxo-5-thiabicyclo[4.2.0]oct-2-ene-2-carboxylic acid]
β-Lacta ™ Test Colour (E. aerogenes strains; E. aerogenes 11772, Inducible cephalosporinase, 30 min with HMRZ-86): Yellow
β-Lacta ™ Test Colour (E. aerogenes strains; E. aerogenes 11775, Hyperproduced cephalosporinase, 30 min with HMRZ-86): Yellow
β-Lacta ™ Test Colour (E. aerogenes strains; E. aerogenes 11796, ESBL TEM 24, 30 min with HMRZ-86): Orange
β-Lacta ™ Test Colour (C. freundii strain): Yellow
β-Lacta ™ Test Colour ([1]; E. coli 11746, Hyperproduced penicillinase, 30 min with HMRZ-86): Yellow
β-Lacta ™ Test Colour ([1]; E. coli 11748, Inducible cephalosporinase, 30 min with HMRZ-86): Yellow
β-Lacta ™ Test Colour ([1]; E. coli 11755, Carbapenemase OXA-48 - CTX-M, 30 min with HMRZ-86): Red
β-Lacta ™ Test Colour ([1]; E. coli 11757, Carbapenemase OXA-48, 30 min with HMRZ-86): Orange
β-Lacta ™ Test Colour ([1]; E. coli 11765, Hyperproduced penicillinase, 30 min with HMRZ-86): Yellow
β-Lacta ™ Test Colour ([1]; E. coli 11766, Inducible cephalosporinase, 30 min with HMRZ-86): Yellow
β-Lacta ™ Test Colour ([1]; E. coli 11771, Hyperproduced penicillinase, 30 min with HMRZ-86): Yellow
β-Lacta ™ Test Colour ([1]; E. coli 11776, Inducible cephalosporinase, 30 min with HMRZ-86): Yellow
β-Lacta ™ Test Colour ([1]; E. coli 11780, Hyperproduced penicillinase, 30 min with HMRZ-86): Yellow
β-Lacta ™ Test Colour ([1]; E. coli 11781, Low-level penicillinase, 30 min with HMRZ-86): Yellow
β-Lacta ™ Test Colour ([1]; E. coli 11791, Hyperproduced cephalosporinase, 30 min with HMRZ-86): Yellow
β-Lacta ™ Test Colour ([1]; E. coli 11810, ESBL CTX-M-1, 30 min with HMRZ-86): Red
β-Lacta ™ Test Colour ([1]; E. coli 11817, ESBL CTX-M-2, 30 min with HMRZ-86): Red
β-Lacta ™ Test Colour ([1]; E. coli 11818, ESBL CTX-M-1, 30 min with HMRZ-86): Red
β-Lacta ™ Test Colour ([1]; E. coli 11820, ESBL SHV-12, 30 min with HMRZ-86): Red
β-Lacta ™ Test Colour ([1]; E. coli 11828, ESBL CTX-M-27, 30 min with HMRZ-86): Red
β-Lacta ™ Test Colour ([1]; E. coli 11833, ESBL CTX-M-9, 30 min with HMRZ-86): Red
β-Lacta ™ Test Colour ([1]; E. coli 11834, ESBL TEM-12, 30 min with HMRZ-86): Yellow
β-Lacta ™ Test Colour ([1]; E. coli 11863, ESBL CTX-M-14, 30 min with HMRZ-86): Red
β-Lacta ™ Test Colour ([1]; E. coli K12, Beta-lactamase negative, 30 min with HMRZ-86): Yellow
β-Lacta ™ Test Colour (K. pneumoniae strains; K. pneumoniae 11754, Carbapenemase OXA-48 - CTX-M, 30 min with HMRZ-86): Red
β-Lacta ™ Test Colour (K. pneumoniae strains; K. pneumoniae 11762, Carbapenemase OXA-48, 30 min with HMRZ-86): Orange
β-Lacta ™ Test Colour (K. pneumoniae strains; K. pneumoniae 11770, Low-level penicillinase, 30 min with HMRZ-86): Yellow
β-Lacta ™ Test Colour (K. pneumoniae strains; K. pneumoniae 11812, ESBL CTX-M-15, 30 min with HMRZ-86): Red
β-Lacta ™ Test Colour (K. pneumoniae strains; K. pneumoniae 11839, Carbapenemase KPC-2, 30 min with HMRZ-86): Red
β-Lacta ™ Test Colour (K. pneumoniae strains; K. pneumoniae 11842, Carbapenemase NDM-1, 30 min with HMRZ-86): Red
β-Lacta ™ Test Colour (P. aeruginosa strains; P. aeruginosa 11774, Hyperproduced cephalosporinase): Orange
β-Lacta ™ Test Colour (P. aeruginosa strains; P. aeruginosa 11778, Hyperproduced cephalosporinase): Yellow
β-Lacta ™ Test Colour (P. aeruginosa strains; P. aeruginosa 11782, Hyperproduced cephalosporinase): Yellow
